One test deals with KMS11-luc cells. The test can be described thus: RTCC assay of bivalent AB3 in combination with GSI (8x8 matrix). Format: cell-based, human. Particulars: for shift of bivalent AB3 response curves with increasing GSI concentration: combination with bivalent AB3. From the text:
Human T cells were isolated from peripheral blood of healthy human donors. First, peripheral blood mononuclear cells (PBMCs) were fractionated from donor blood using a Ficoll-Paque PLUS (GE Healthcare #17-1440-02) density gradient. T-cells were then isolated from PBMCs by negative selection according to manufacturer's recommended protocol (Miltenyi #130-096-535). The isolated T-cells were further expanded using Human T-Activator CD3/CD28 Dynabeads (Gibco #11132D) for nine days, then debeaded magnetically and stored as viable frozen aliquots in liquid nitrogen. The expanded T cells were used as effector T cells in RTCC assays where they were thawed from frozen aliquots, counted and used immediately at an Effector:Target (E:T) cell ratio of 3:1.
The target MM cell line KMS11 was transduced to constitutively express luciferase, which was used to measure cell viability/survival. KMS11 cells were pelleted and resuspended in fresh media immediately prior to plating to remove any basal level of shed BCMA that can have been present. 2,500 KMS11-luc target cells in 25 μL TCM were added to wells of 384-well plates. 50 nL of serially diluted bivalent AB3 and GSI solutions (LY411575, PR03084014, and BMS0708163) were acoustically dispensed to corresponding wells of the assay plates. 7,500 expanded T cells, as described above, were added to corresponding wells of assay plate in 20 μL TCM. The assay was incubated at 37° C./5% CO2 for 20 hr, followed by measurement of luciferase activity to indicate target cell viability (BrightGlo, Promega #E2650) following manufacturer's protocols. Target cells only (KMS11) without T cells or antibodies serve as control and represent 100% luciferase activity (100% viability). Data were plotted and analyzed using Spotfire, where EC50 values were calculated using sigmoidal, 4-parameter non-linear regression curve fit.
Data from bivalent AB3 and GSI combinations from Example 11 (FIG. 24) were plotted and analyzed using Spotfire, where EC50 values were calculated using sigmoidal, 4-parameter non-linear regression curve fit.

Another test concerns mBCMA on KMS11 cells. The test can be described thus: Time course of membrane BCMA (mBCMA) by flow cytometry after GSI treatment. Format: cell-based, human. Conditions: 2 nM LY411575 or 200 nM PF03084014, 42-hr time course. How it is done: (§1) KMS11 cells were cultured in a 6 well plate at 4×10^6 cells/well in 4 mL of RPMI1640 supplemented with 20% FBS (Gibco #11875-085, Seradigm #1500-500) per well. GSI stock solutions were prepared in DMSO at 10 mM, and added to the cells at final concentrations of 2 nM for LY411575 (Sigma #SML0506) or 200 nM for PF03084014 (Selleckchem #S8018) respectively. Cells were incubated at 37° C./5% CO2, and samples were collected at the following time points: 0, 1, 2, 4, 6, 8, 12, 18, 24, 30 and 42 hr. Collected samples were evaluated for BCMA expression by ELISA and flow cytometry as outline below.
(§2) A pre-treatment study was conducted as above except that KMS11 cells were treated overnight (22 hr) with only LY411575. Cells were washed twice with 3 volumes of growth medium, and re-plated with fresh growth medium without the GSI to the original 4 mL volume. […]
For each collected sample, cells were pelleted by centrifugation. […] Samples from all timepoints were analyzed together by flow cytometry on a BD LSR Fortessa instrument. […]
Where receptor density of BCMA was provided, the anti-BCMA antibody binding capacity (ABC) on KMS11 cells was determined using Quantum Simply Cellular beads (Bangs Laboratories #815) following vendor supplied protocol. The ABC is an estimate of the quantity of receptors per cell.
A general note: A flow cytometer gives signals particle by particle.

The subject of another test is sBCMA from KMS11 cells. Kind of test: Time course of shed BCMA (sBCMA) by ELISA after GSI treatment. Format: cell-based, human. Conditions: 2 nM LY411575 or 200 nM PF03084014, 42-hr time course. How it is done: as §1, §2
sBCMA levels in supernatants collected and frozen at the various timepoints were determined by ELISA following vendor supplied protocol (R&D Systems #DY193). […] Quantified values as determined by the kit were divided by 5.5 to correct for a molecular mass difference between BCMA-Fc fusion protein used in the kit as a standard curve (32,554.6 Da) and the mass of endogenously shed BCMA extra-cellular domain (5,899.3 Da). […]
A general note: In an ELISA, binding on a coated surface is turned into a signal by an enzyme label.

A further test concerns mBCMA in KMS11 xenograft. Kind of test: In vivo GSI treatment, membrane BCMA on tumor cells by flow cytometry. Conditions: 150 mg/kg BID for 5 days. Also on record: species or system NSG mice. How it is done: On Day 0, KMS11-Luc cells were harvested and suspended in Hanks Balanced Salt Solution (HBSS) and 50% matrigel solution at a concentration of 25×10^6 cells/mL. Female NOD.Cg-Prkdc^scidII2rg^tm1Wji/SzJ mice (NSG mice) at ˜6 weeks old (Jackson Laboratories, ME, USA), were implanted sub-cutaneously (SQ) with 200 μL of the cell suspension to deliver 5×10^6 KMS11-Luc cells SQ in the right flank. Seven days following tumor inoculation, each mouse received an adoptive transfer (AdT) of 10×10^6 of peripheral blood mononuclear cells (PBMCs) in 100 μL via IV injection in the lateral tail vein. The PBMCs were previously isolated from a human leukopak, frozen and stored in Cryostor10 media in vapor phase liquid Nitrogen tank until use. Immediately prior to AdT, PBMCs were thawed and suspended at a concentration of 100×10^6 cells/ml in Hanks Balanced Salt Solution (HBSS). […] To obtain single cell suspensions from excised tumors, the tissues were minced with scissors followed by mechanical homogenization in dissociation buffer containing RPMI (Gibco, Life Technologies) with Liberase™ research grade collagenase (Roche) and DNase I recombinase (Roche) using the GentleMAX (Miltenyi). Following a 5 minute incubation at 37° C. in a water or bead bath, the homogenates were quenched with 10% FBS and filtered on a 70-μM sieve (352350, Falcon). The concentration of single cell suspensions were measured on the Vi-Cell (Beckman Coulter), and cells were pelleted by centrifugation for 5 minutes at 1200 rpm. The supernatants were discarded and cell pellets were resuspended in 400 μL of RPMI (Gibco, Life Technologies). Tumor cells were plated in a volume of 100 μL/well at a cell density of 500,000 to 2 million/well. For cell surface staining, live/dead stain was added to plated samples in DPBS and incubated for 30 minutes. […] All samples were analyzed together by flow cytometry at the completion of the study. […]

The subject of test [1] is sBCMA in KMS11 xenograft model serum. Kind of test: In vivo GSI treatment, shed BCMA in serum by ELISA. Also on record: species or system NSG mice. Conditions: 150 mg/kg BID for 5 days. The protocol:
sBCMA levels in supernatants collected and frozen at the various timepoints were determined by ELISA following vendor supplied protocol (R&D Systems #DY193). Briefly, recombinant human BCMA-Fc protein was included in the kit, and used to generate a standard curve. Collected samples were assayed and sBCMA concentrations extrapolated from the standard curve. […] The results were plotted in Tibco Spotfire or Graphpad Prism against the concentration of GSI. On Day 0, KMS11-Luc cells were harvested and suspended in Hanks Balanced Salt Solution (HBSS) and 50% matrigel solution at a concentration of 25×10^6 cells/mL. Female NOD.Cg-Prkdc^scidII2rg^tm1Wji/SzJ mice (NSG mice) at ˜6 weeks old (Jackson Laboratories, ME, USA), were implanted sub-cutaneously (SQ) with 200 μL of the cell suspension to deliver 5×10^6 KMS11-Luc cells SQ in the right flank. Seven days following tumor inoculation, each mouse received an adoptive transfer (AdT) of 10×10^6 of peripheral blood mononuclear cells (PBMCs) in 100 μL via IV injection in the lateral tail vein. The PBMCs were previously isolated from a human leukopak, frozen and stored in Cryostor10 media in vapor phase liquid Nitrogen tank until use. Immediately prior to AdT, PBMCs were thawed and suspended at a concentration of 100×10^6 cells/ml in Hanks Balanced Salt Solution (HBSS).

The mark [2] stands for this setting: KMS11-luc, expanded T cells E:T 3:1, 20 hr.

On to `NC(=O)[C@@H](CCC(F)(F)F)N(Cc1ccc(-c2ncon2)cc1F)S(=O)(=O)c1ccc(Cl)cc1` [BMS-708163, (R)-2-((4-chloro-N-(2-fluoro-4-(1,2,4-oxadiazol-3-yl)benzyl)phenyl)sulfonamido)-5,5,5-trifluoropentanamide], for which, in the test on KMS11-luc cells (setting [2]), the “GSI concentration with modest enhancement of bivalent AB3 potency” value came to 8 nM and the “GSI concentration with significant enhancement of bivalent AB3 potency” value is reported as ≥ 31 nM. In addition, the “shift of bivalent AB3 response curves with increasing GSI concentration” value (shortened to “shift … with increasing GSI concentration”) in the test on KMS11-luc cells is recorded as “response curves shifted to the left”.

Take `C[C@H](NC(=O)[C@@H](O)c1cc(F)cc(F)c1)C(=O)N[C@@H]1C(=O)N(C)c2ccccc2-c2ccccc21` [LY411575, (S)-2-((S)-2-(3,5-difluorophenyl)-2-hydroxyacetamido)-N—((S)-5-methyl-6-oxo-6,7-dihydro-5H-dibenzo[b,d]azepin-7-yl)propanamide]: the “mBCMA levels over time” value with mBCMA on KMS11 cells was “increased over time”. For the same compound, in the test with KMS11-luc cells (setting [2]), the “GSI concentration with no effect on bivalent AB3 activity” value is given as ≤ 7.8 pM, the “GSI concentration with significant enhancement of bivalent AB3 potency” value was ≥ 0.125 nM and the “GSI concentration with small effect on bivalent AB3 activity” value is listed as 31.2 pM. For the same compound, the “shift … with increasing GSI concentration” value in the test with KMS11-luc cells is listed as “response curves shifted to the left”. In addition, in the test on sBCMA from KMS11 cells, the “sBCMA concentration over time” value is listed as “no increase over time”.

In the case of `CCC[C@H](N[C@H]1CCc2cc(F)cc(F)c2C1)C(=O)Nc1cn(C(C)(C)CNCC(C)(C)C)cn1` [PF03084014, (S)-2-(((S)-6,8-difluoro-1,2,3,4-tetrahydronaphthalen-2-yl)amino)-N-(1-(2-methyl-1-(neopentylamino)propan-2-yl)-1H-imidazol-4-yl)pentanamide], the “mBCMA levels over time” value in the test with mBCMA on KMS11 cells was “increased over time”. In the test with mBCMA in KMS11 xenograft, the “increase in mBCMA compared to the vehicle control” value stood at 10 fold, the “mBCMA levels by 24 hours post last dose” value is recorded as “dropped back to levels similar to those observed for the vehicle control” and the “time point post last dose through which mBCMA increase was sustained” value is 7 h. Also, in the test with KMS11-luc cells (setting [2]), the “GSI concentration with modest enhancement of bivalent AB3 potency” value came out at 3 nM and the “GSI concentration with significant enhancement of bivalent AB3 potency” value is reported as ≥ 12 nM. Also, the “shift … with increasing GSI concentration” value in the test with KMS11-luc cells was “response curves shifted to the left”. In the test with sBCMA from KMS11 cells, the “sBCMA concentration over time” value is “no increase over time”. For the same compound, in test [1], the “sBCMA levels between 24 and 48 hours post last dose” value is given as “returning to levels comparable to those observed for the vehicle treated animals”; the “time post last dose for which sBCMA levels were ablated” value was “up to 24 hours”.
